“And” between values parts separate entries of the source, which are not always exact repeats. Identical values can stand only once.
Molecular target: T1, hTRPM8 (Homo sapiens, UniProt Q7Z2W7)
T1 construct: expressed in transfected cells; host or cells: HEK293 (transient, Lipofectamine 3000)
Test: Whole-cell patch-clamp of WS-12-evoked currents in HEK293 cells expressing hTRPM8
Format: cell-based
Description: We first used patch‐clamp to investigate the potency and blockade mechanism of compound 23 inhibiting WS‐12 evoked ionic currents in hTRPM8‐HEK293 cells. […] This blockade activity was reversible as virtually all WS‐12‐evoked ionic current could be recovered upon washout (Fig. 3A, bottom panel), thus preventing a use‐dependent side effect.
To unveil the underlying mechanism of channel blockade (competitive vs noncompetitive) we evaluated the effect of the α‐acyloxy carboxamide 23 on WS‐12 activating potency. For this purpose, we obtained the WS‐12 dose response in the absence and presence of 80 nM compound 23 (corresponding to its IC50 value).
For this purpose, we run 100 ms voltage ramps from −120 to 120 mV activated by WS‐12 in the absence and presence of 80 nM α‐acyloxy carboxamide 23.
Recording through patch‐clamp techniques was performed on HEK293 cells cultured in DMEM GlutaMax with 10% FBS and 1% P/S. The cell lines were authenticated following the standardization of STR Profiling guidelines (ANSI/ATCC ASN‐0002‐2022) using the CLA Identifier Plus PCR Amplification Kit (Thermo Fisher‐A44660) to analyze 16 highly variant human STRs. The cells were confirmed to be mycoplasma‐free. These cells were transiently transfected with plasmids encoding hTRPV1, hTRPM8, or hTRPA1 using Lipofectamine 3000. Transfected cells were seeded on 12 mm Ø glass coverslips treated with poly‐L‐lysine solution and recorded 2 days post‐transfection. The intracellular pipette solution included (in mM) 150 NaCl, 3 MgCl2, 5 EGTA, and 10 HEPES, pH 7.2 with CsOH, while the extracellular solution contained (in mM) 150 NaCl, 6 CsCl, 1 MgCl2, 1.5 CaCl2, 10 glucose, and 10 HEPES, pH 7.4 with NaOH. An EPC‐10 amplifier with Patchmaster software was used in whole‐cell experiments. Patch pipettes, created from thin‐wall borosilicate capillary glass tubing, were pulled with a Micropipette puller to a final resistance of 2–8 MΩ when filled with the internal solution. Recordings were acquired at 10 kHz and low‐pass filtered at 3 kHz, discarding recordings with leak currents > 200pA or series resistance > 20 MΩ. In voltage‐clamp recordings, cells were held at a constant potential, and the application of modulators was carried out using a gravity‐driven perfusion system. Total currents were normalized to the first current peak evoked by the activating stimuli. To study the effect of compound 23 on TRPM8 voltage dependence, a voltage step protocol from −120 to 120 mV was used with 100 ms steps of 20 mV from a holding potential at 0 mV. Leak currents were not subtracted, and conductance was calculated using the equation: G = I/(V − V r), where I is the measured ionic current, V is the applied voltage, and V r is the reversal potential that for the ionic conditions used was set to 0 mV.
Dose–response relationships for WS‐12 channel activation were normalized to the response of the channel to a saturating concentration of the agonist. Similarly, dose–response curves for blockade activity were normalized with respect to the response in the absence of the blocker. The experimental data were fitted to the Hill equation: Y=Bottom+Top‐Bottom/(1+10^ligand−LogIC50orLogEC50) using PRISM 9 software. Top was fixed to 100, as the unblocked response or the maximal response for WS‐12.

T1 sequence (Q7Z2W7 whole entry): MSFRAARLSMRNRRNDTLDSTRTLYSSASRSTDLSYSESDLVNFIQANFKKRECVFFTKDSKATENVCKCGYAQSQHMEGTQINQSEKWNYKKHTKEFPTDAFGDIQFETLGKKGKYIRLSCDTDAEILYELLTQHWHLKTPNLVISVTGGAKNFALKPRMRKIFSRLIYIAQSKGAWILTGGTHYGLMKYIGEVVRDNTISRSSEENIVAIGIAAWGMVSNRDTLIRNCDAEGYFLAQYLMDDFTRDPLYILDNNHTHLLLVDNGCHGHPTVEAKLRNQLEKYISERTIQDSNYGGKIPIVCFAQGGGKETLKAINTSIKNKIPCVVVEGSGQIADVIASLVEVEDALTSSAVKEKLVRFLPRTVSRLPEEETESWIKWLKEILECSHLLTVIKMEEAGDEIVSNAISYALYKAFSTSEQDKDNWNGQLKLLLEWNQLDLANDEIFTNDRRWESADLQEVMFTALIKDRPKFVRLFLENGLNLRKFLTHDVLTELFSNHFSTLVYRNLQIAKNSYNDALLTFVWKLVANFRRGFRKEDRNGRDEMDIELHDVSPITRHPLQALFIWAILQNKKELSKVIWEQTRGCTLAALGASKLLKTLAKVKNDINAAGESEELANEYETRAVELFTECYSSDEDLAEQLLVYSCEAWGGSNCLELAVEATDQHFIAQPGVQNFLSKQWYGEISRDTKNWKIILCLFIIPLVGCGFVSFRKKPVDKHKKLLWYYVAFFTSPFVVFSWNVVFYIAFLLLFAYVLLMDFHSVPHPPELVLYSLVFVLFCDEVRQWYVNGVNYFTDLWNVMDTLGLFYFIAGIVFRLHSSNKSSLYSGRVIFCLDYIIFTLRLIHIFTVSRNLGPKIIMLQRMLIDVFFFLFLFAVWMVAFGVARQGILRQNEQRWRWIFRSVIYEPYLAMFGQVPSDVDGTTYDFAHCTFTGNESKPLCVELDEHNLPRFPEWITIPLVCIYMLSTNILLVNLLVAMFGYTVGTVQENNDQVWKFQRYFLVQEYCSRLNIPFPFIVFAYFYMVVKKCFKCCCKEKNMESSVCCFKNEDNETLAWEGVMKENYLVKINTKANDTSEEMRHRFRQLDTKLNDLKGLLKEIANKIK

O=C(COC(=O)c1ccccc1-c1ccccc1)NC12CC3CC(CC(C3)C1)C2 [Compound 23, 2‐((3S,5S,7S)‐adamantan‐1‐ylamino)‐2‐oxoethyl [1,1′‐biphenyl]‐2‐carboxylate]
reduction of WS‐12 evoked inward current (1 μM compound, 1 μM WS-12, holding potential −60 mV): ≥ 75% | Schild plot slope (WS12 vs compound 23 at 0.02, 0.08, 0.1, 0.5 μM): 1.003 and 1.0 | reversibility of blockade upon washout (WS-12-evoked current recovered after washout): reversible | mechanism of channel blockade (WS-12 dose-response shift and Schild plot): competitive | Hill coefficient of hTRPM8 current blockade (patch-clamp dose-response, −60 mV): 1 | IC50 (patch-clamp, WS-12 evoked current, −60 mV, N = 3, n = 10, read-out: IC50 of hTRPM8 current blockade): 0.08 ± 0.07 µM | voltage dependency of channel blockade (voltage steps −120 to 120 mV, 0.08 μM compound 23, 10 μM AMTB): not voltage dependent

From article PMC12220852, “An adamantane‐based ligand as a novel chemical tool for thermosensory TRPM8 channel therapeutic modulation” (The Febs Journal, 2025)
